Test results reported in patent publication US9108999B2, “2′, 4′-difluoro-2′-methyl substituted nucleoside derivatives as inhibitors of HCV RNA replication” (priority 2011, dated 2015).
Where two headings read alike, the source gives them in different places.

Key:
in vitro = conditions: human
[1] = test system: genotype 1b replicon construct NK5.1 (HCV subgenomic RNA) in Huh7 cell line 2209-23; test: microbe, parasite or virus in culture; type: cell-based, Hepatitis C Virus; conditions: read-out: HCV Replicon IC50
[2] = test system: HCV replicon cells (2209-23); conditions: read-out: WST-1 Cytotoxicity CC50; replicon cells 2209-23, three days incubation, WST-1 OD 450 nm
[3] = Hepatitis C virus, Huh-7, 72 h, Huh7 replicon cells 2209-23, three days incubation, Renilla luciferase readout
[4] = Huh7 replicon cells 2209-23, three days incubation, Renilla luciferase readout

Row | SMILES | CC50 at 3 days (in vitro) [µM] | IC50 [1, 3] [nM] | IC50 ([1]; Hepatitis C virus, Huh-7, 72 h) [nM] | IC50 [1, 4] [nM] | CC50 [2] [µM]
1 | CC(C)OC(=O)[C@H](C)NP(=O)(OC[C@@]1(F)O[C@@H](n2ccc(=O)[nH]c2=O)[C@](C)(F)[C@@H]1O)Oc1ccccc1 (stereo partly drawn) [Compound I-1, (S)-2-{[(2S,3S,4R,5R)-5-(2,4-Dioxo-3,4-dihydro-2H-pyrimidin-1-yl)-2,4-difluoro-3-hydroxy-4-methyl-tetrahydro-furan-2-ylmethoxy]-phenoxy-phosphorylamino}-propionic acid isopropyl ester] | > 100 | – | – | – | –
2 | CC(C)OC(=O)[C@H](C)NP(=O)(OC[C@@]1(F)O[C@@H](n2ccc(=O)[nH]c2=O)[C@](C)(F)[C@@H]1O)Oc1cccc2ccccc12 (stereo partly drawn) [Compound I-2, (S)-2-[[(2S,3S,4R,5R)-5-(2,4-Dioxo-3,4-dihydro-2H-pyrimidin-1-yl)-2,4-difluoro-3-hydroxy-4-methyl-tetrahydro-furan-2-ylmethoxy]-(naphthalen-1-yloxy)-phosphorylamino]-propionic acid isopropyl ester] | > 100 | 115 | – | – | –
3 | CC(C)OC(=O)[C@H](C)NP(=O)(OC[C@@]1(F)O[C@@H](n2ccc(=O)[nH]c2=O)[C@](C)(F)[C@@H]1O)Oc1ccc2ccccc2c1 (stereo partly drawn) [Compound I-3, (S)-2-[[(2S,3S,4R,5R)-5-(2,4-Dioxo-3,4-dihydro-2H-pyrimidin-1-yl)-2,4-difluoro-3-hydroxy-4-methyl-tetrahydro-furan-2-ylmethoxy]-(naphthalen-2-yloxy)-phosphorylamino]-propionic acid isopropyl ester] | > 100 | – | – | – | –
4 | CC(C)OC(=O)[C@H](C)NP(=O)(OC[C@@]1(F)O[C@@H](n2ccc(=O)[nH]c2=O)[C@](C)(F)[C@@H]1OP(=O)(N[C@@H](C)C(=O)OC(C)C)Oc1ccc2ccccc2c1)Oc1ccc2ccccc2c1 (stereo partly drawn) [Compound I-4, (S)-2-[[(2S,3S,4R,5R)-5-(2,4-dioxo-3,4-dihydro-2H-pyrimidin-1-yl)-2,4-difluoro-3-[((S)-1-isopropoxycarbonyl-ethylamino)-(naphthalen-2-yloxy)-phosphoryloxy]-4-methyl-tetrahydro-furan-2-ylmethoxy]-(naphthalen-2-yloxy)-phosphorylamino]-propionic acid isopropyl ester] | > 100 | – | 7190 | – | –
5 | CCC(=O)O[C@H]1[C@@](C)(F)[C@H](n2ccc(=O)[nH]c2=O)O[C@]1(F)COP(=O)(N[C@@H](C)C(=O)OC(C)C)Oc1cccc2ccccc12 (stereo partly drawn) [Compound I-5, (S)-2-[[(2S,3S,4R,5R)-5-(2,4-Dioxo-3,4-dihydro-2H-pyrimidin-1-yl)-2,4-difluoro-4-methyl-3-propionyloxy-tetrahydro-furan-2-ylmethoxy]-(naphthalen-1-yloxy)-phosphorylamino]-propionic acid isopropyl ester] | 67.8 | 152 | – | – | –
6 | CC(C)OC(=O)[C@H](C)N[P@](=O)(OC[C@@]1(F)O[C@@H](n2ccc(=O)[nH]c2=O)[C@](C)(F)[C@@H]1O)Oc1ccc2ccccc2c1 [Compound I-6] | > 100 | – | 53.7 | – | –
7 | CC(C)OC(=O)[C@H](C)N[P@@](=O)(OC[C@@]1(F)O[C@@H](n2ccc(=O)[nH]c2=O)[C@](C)(F)[C@@H]1O)Oc1ccc2ccccc2c1 [Compound I-7] | – | – | – | 202 | > 100
8 | CC(C)OC(=O)[C@H](C)N[P@@](=O)(OC[C@@]1(F)O[C@@H](n2ccc(=O)[nH]c2=O)[C@](C)(F)[C@@H]1O)Oc1cccc2ccccc12 [Compound I-8, (S)-2-[(R)-[(2S,3S,4R,5R)-5-(2,4-Dioxo-3,4-dihydro-2H-pyrimidin-1-yl)-2,4-difluoro-3-hydroxy-4-methyl-tetrahydro-furan-2-ylmethoxy]-(naphthalen-1-yloxy)-phosphorylamino]-propionic acid isopropyl ester] | – | – | – | 1030 | > 100
9 | CC(C)OC(=O)[C@H](C)N[P@](=O)(OC[C@@]1(F)O[C@@H](n2ccc(=O)[nH]c2=O)[C@](C)(F)[C@@H]1O)Oc1cccc2ccccc12 [Compound I-9, (S)-2-[(S)-[(2S,3S,4R,5R)-5-(2,4-Dioxo-3,4-dihydro-2H-pyrimidin-1-yl)-2,4-difluoro-3-hydroxy-4-methyl-tetrahydro-furan-2-ylmethoxy]-(naphthalen-1-yloxy)-phosphorylamino]-propionic acid isopropyl ester] | > 100 | 60.2 | – | – | –
10 | CC(C)OC(=O)[C@H](C)N[P@](=O)(OC[C@@]1(F)O[C@@H](n2ccc(=O)[nH]c2=O)[C@](C)(F)[C@@H]1O)Oc1ccccc1 [Compound I-10, (S)-2-{(S)-[(2S,3S,4R,5R)-5-(2,4-Dioxo-3,4-dihydro-2H-pyrimidin-1-yl)-2,4-difluoro-3-hydroxy-4-methyl-tetrahydro-furan-2-ylmethoxy]-phenoxy-phosphorylamino}-propionic acid isopropyl ester] | > 100 | 171 | – | – | –
11 | CC(C)OC(=O)[C@H](C)N[P@@](=O)(OC[C@@]1(F)O[C@@H](n2ccc(=O)[nH]c2=O)[C@](C)(F)[C@@H]1O)Oc1ccccc1 [Compound I-11, (S)-2-{(R)-[(2S,3S,4R,5R)-5-(2,4-Dioxo-3,4-dihydro-2H-pyrimidin-1-yl)-2,4-difluoro-3-hydroxy-4-methyl-tetrahydro-furan-2-ylmethoxy]-phenoxy-phosphorylamino}-propionic acid isopropyl ester] | 95.6 | 1310 | – | – | –
12 | CC(C)OC(=O)[C@H](C)N[P@](=O)(OC[C@@]1(F)O[C@@H](n2cc(Br)c(=O)[nH]c2=O)[C@](C)(F)[C@@H]1O)Oc1cccc2ccccc12 [Compound I-12, (S)-2-[(S)-[(2S,3S,4R,5R)-5-(5-Bromo-2,4-dioxo-3,4-dihydro-2H-pyrimidin-1-yl)-2,4-difluoro-3-hydroxy-4-methyl-tetrahydro-furan-2-ylmethoxy]-(naphthalen-1-yloxy)-phosphorylamino]-propionic acid isopropyl ester] | 34.8 | 17400 | – | – | –
13 | CC(C)OC(=O)[C@H](C)N[P@](=O)(OC[C@@]1(F)O[C@@H](n2cc(Br)c(=O)[nH]c2=O)[C@](C)(F)[C@@H]1O)Oc1ccc2ccccc2c1 [Compound I-13] | > 100 | – | 38500 | – | –
14 | CC(C)OC(=O)[C@H](C)N[P@@](=O)(OC[C@@]1(F)O[C@@H](n2cc(Br)c(=O)[nH]c2=O)[C@](C)(F)[C@@H]1O)Oc1cccc2ccccc12 [Compound I-14, (S)-2-[(R)-[(2S,3S,4R,5R)-5-(5-Bromo-2,4-dioxo-3,4-dihydro-2H-pyrimidin-1-yl)-2,4-difluoro-3-hydroxy-4-methyl-tetrahydro-furan-2-ylmethoxy]-(naphthalen-1-yloxy)-phosphorylamino]-propionic acid isopropyl ester] | – | – | – | 9640 | 50.8
15 | CC(C)OC(=O)[C@H](C)N[P@@](=O)(OC[C@@]1(F)O[C@@H](n2cc(Br)c(=O)[nH]c2=O)[C@](C)(F)[C@@H]1O)Oc1ccc2ccccc2c1 [Compound I-15] | – | – | – | 13200 | 38.5
16 | CC(C)OC(=O)[C@H](C)NP(=O)(OC[C@@]1(F)O[C@@H](n2cc(Br)c(=O)[nH]c2=O)[C@](C)(F)[C@@H]1O)Oc1ccc2ccccc2c1 (stereo partly drawn) [Compound I-16, (S)-2-[[(2S,3S,4R,5R)-5-(5-Bromo-2,4-dioxo-3,4-dihydro-2H-pyrimidin-1-yl)-2,4-difluoro-3-hydroxy-4-methyl-tetrahydro-furan-2-ylmethoxy]-(naphthalen-2-yloxy)-phosphorylamino]-propionic acid isopropyl ester] | > 100 | – | 77600 | – | –
